For test [1], the target named is T1, human orexin 2 receptor (Homo sapiens, UniProt O43614).
T1 construct: expressed in transfected cells
T1 sequence (O43614 1-444): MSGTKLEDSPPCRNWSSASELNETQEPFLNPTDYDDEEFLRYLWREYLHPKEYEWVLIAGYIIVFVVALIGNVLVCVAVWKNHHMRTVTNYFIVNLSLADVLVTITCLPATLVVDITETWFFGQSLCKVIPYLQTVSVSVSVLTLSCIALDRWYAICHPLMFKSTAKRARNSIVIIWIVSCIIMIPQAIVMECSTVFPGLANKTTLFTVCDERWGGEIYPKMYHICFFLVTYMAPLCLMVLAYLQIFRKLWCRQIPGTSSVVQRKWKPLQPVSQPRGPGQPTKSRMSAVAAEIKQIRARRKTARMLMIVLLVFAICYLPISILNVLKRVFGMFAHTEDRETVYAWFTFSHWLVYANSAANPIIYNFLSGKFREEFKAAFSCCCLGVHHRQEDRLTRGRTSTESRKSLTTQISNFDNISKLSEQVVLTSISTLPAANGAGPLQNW
Description: Calcium accumulation in cells (FLIPR), antagonism of orexin A, human orexin 2 receptor. The format is cell-based. Conditions: calcium accumulation, antagonism of orexin A, Cheng-Prusoff corrected; read-out: FLIPR hOx2R Ki.

In test [2] the target is T2, human orexin 1 receptor (Homo sapiens, UniProt O43613).
T2 construct: expressed in transfected cells
T2 sequence (O43613 1-425): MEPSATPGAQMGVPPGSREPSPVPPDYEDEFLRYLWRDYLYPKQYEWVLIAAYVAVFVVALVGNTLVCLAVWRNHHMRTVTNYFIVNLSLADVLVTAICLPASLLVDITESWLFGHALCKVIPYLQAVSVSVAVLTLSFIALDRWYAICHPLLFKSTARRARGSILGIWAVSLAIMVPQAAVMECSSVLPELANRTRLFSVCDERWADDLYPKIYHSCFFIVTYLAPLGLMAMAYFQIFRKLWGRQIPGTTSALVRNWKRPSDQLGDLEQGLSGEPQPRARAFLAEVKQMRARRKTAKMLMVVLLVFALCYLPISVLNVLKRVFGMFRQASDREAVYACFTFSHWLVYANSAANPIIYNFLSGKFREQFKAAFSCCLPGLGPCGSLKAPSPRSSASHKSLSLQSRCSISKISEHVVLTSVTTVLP
The test can be described thus: Radioligand binding assay ([125I]orexin A competition), human orexin 1 receptor. Conditions: radioligand [125I]orexin A instead of [3H]-SB649868; read-out: Binding hOx1R Kd.

The target in test [3] is T1, human orexin 2 receptor. The test can be described thus: Radioligand binding assay ([125I]orexin A competition), human orexin 2 receptor. As to conditions: radioligand [125I]orexin A instead of [3H]-SB649868; read-out: Binding hOx2R Kd.
Test [4] has as its target T2, human orexin 1 receptor. The test can be described thus: Calcium accumulation in cells (FLIPR), antagonism of orexin A, human orexin 1 receptor. The format is cell-based. Conditions: calcium accumulation, antagonism of orexin A, Cheng-Prusoff corrected; read-out: FLIPR hOx1R Ki.
Test [5] deals with T2, human orexin 1 receptor. The test can be described thus: Radioligand binding assay ([3H]-SB649868 competition), human orexin 1 receptor. As to conditions: radioligand [3H]-SB649868; read-out: Binding hOx1R Kd. In short, it runs like this: (§1)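 Membranes from CHO or HEK cells expressing the human receptor were incubated 1 h at room temperature with about 1 nM [3H]-SB649868 and test compound in HEPES pH 7.5 buffer with BSA, MgCl2, CaCl2 and tween. Non-specific binding defined with 10 μM almorexant; filtration read-out, values reported as Kd.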

Test [6] addresses T1, human orexin 2 receptor. Description: Radioligand binding assay ([3H]-SB649868 competition), human orexin 2 receptor. Conditions: radioligand [3H]-SB649868; read-out: Binding hOx2R Kd. In short, it runs like this: as §1

A word on the Ki: it is a dissociation constant, usually derived from enzyme kinetics or from competition with a known ligand. The term Kd denotes the concentration at which binding is half-saturated. Consider `O=C1N(Cc2cccc3ccccc23)CCC12CCN(c1cnc3ccccc3n1)CC2` [Example 3.11, 2-(Naphthalen-1-ylmethyl)-8-(quinoxalin-2-yl)-2,8-diazaspiro[4.5]decan-1-one], for which the Ki on human orexin 2 receptor [1] was found to be 195 nM; on human orexin 1 receptor [4], 1070 nM. Also, the Kd on human orexin 1 receptor [2] amounted to 6360 nM; at human orexin 2 receptor [3] it was 414 nM.
In the case of `Cc1cc(C)nc(N2CCC3(CC2)NCCN(Cc2c[nH]c4ccc(F)cc24)C3=O)n1` [Example 1.4, 9-(4,6-Dimethylpyrimidin-2-yl)-4-((5-fluoro-1H-indol-3-yl)methyl)-1,4,9-triazaspiro[5.5]undecan-5-one], the Kd on human orexin 1 receptor [5] was 770 nM; on human orexin 2 receptor [6], 17 nM. Further, the values for the Ki at human orexin 2 receptor [1] and at human orexin 1 receptor [4] were 6 nM and 601 nM, respectively.
Regarding `COc1cc(C)nc(N2CCC3(CCN(Cc4nn(C)nc4-c4cccc(C)c4)C3=O)C2)n1` (centres unmarked) [Example 5.44, 7-(4-methoxy-6-methylpyrimidin-2-yl)-2-((2-methyl-5-(m-tolyl)-2H-1,2,3-triazol-4-yl)methyl)-2,7-diazaspiro[4.4]nonan-1-one], the values for the Kd on human orexin 1 receptor [5] and on human orexin 2 receptor [6] were 106 nM and 20 nM, respectively. The Ki at human orexin 2 receptor [1] is 3.4 nM; on human orexin 1 receptor [4], 68 nM.
For the compound `COc1cc(C)nc(N2CCC3(CC2)OCCN(Cc2c[nH]c4ccccc24)C3=O)n1` [Example 2.18, 4-((1H-Indol-3-yl)methyl)-9-(4-methoxy-6-methylpyrimidin-2-yl)-1-oxa-4,9-diazaspiro[5.5]undecan-5-one], the Kd on human orexin 1 receptor [5] came to 625 nM; on human orexin 2 receptor [6], 23 nM. Moreover, the values for the Ki at human orexin 2 receptor [1] and on human orexin 1 receptor [4] were 4 nM and 383 nM, respectively.
The like results for `O=C1N(Cc2c[nH]c3ccccc23)CCCC12CCN(c1nc3ccccc3[nH]1)C2` (centres unmarked) [Example 7.15, 7-((1H-indol-3-yl)methyl)-2-(1H-benzo[d]imidazol-2-yl)-2,7-diazaspiro[4.5]decan-6-one] were, in that order, 43 nM, 28 nM, 68 nM and 474 nM.
For `COc1cccc(-c2ocnc2CN2CCOC3(CCN(c4nc(C)cc(OC)n4)CC3)C2=O)c1` [Example 2.20, 9-(4-Methoxy-6-methylpyrimidin-2-yl)-4-((5-(3-methoxyphenyl)oxazol-4-yl)methyl)-1-oxa-4,9-diazaspiro[5.5]undecan-5-one], the Kd amounted to 57 nM at human orexin 1 receptor [5] and 7 nM on human orexin 2 receptor [6]. Besides, the Ki on human orexin 2 receptor [1] was determined as 2 nM; at human orexin 1 receptor [4], 43 nM.
`Cc1ccnc(N2CCC3(CCCN(Cc4c[nH]c5ccccc45)C3=O)C2)n1` (centres unmarked) [Example 7.11, 7-((1H-indol-3-yl)methyl)-2-(4-methylpyrimidin-2-yl)-2,7-diazaspiro[4.5]decan-6-one]: the Kd on human orexin 1 receptor [5] was 89 nM; at human orexin 2 receptor [6] it was 73 nM. In addition, the Ki on human orexin 2 receptor [1] amounted to 38 nM; on human orexin 1 receptor [4], 304 nM.
`COc1cc(C)nc(N2CCC3(CC2)OCCN(Cc2c[nH]c4ncccc24)C3=O)n1` [Example 2.19, 4-((1H-Pyrrolo[2,3-b]pyridin-3-yl)methyl)-9-(4-methoxy-6-methylpyrimidin-2-yl)-1-oxa-4,9-diazaspiro[5.5]undecan-5-one]: the Kd on human orexin 1 receptor [5] turned out to be 3520 nM; at human orexin 2 receptor [6], 184 nM. Moreover, the Ki came out at 35 nM at human orexin 2 receptor [1] and 1490 nM at human orexin 1 receptor [4].
With `Cc1ccnc(N2CCC3(CC2)OCCN(Cc2c[nH]c4ccccc24)C3=O)n1` [Example 2.8, 4-((1H-Indol-3-yl)methyl)-9-(4-methylpyrimidin-2-yl)-1-oxa-4,9-diazaspiro[5.5]undecan-5-one], the results for the Kd on human orexin 1 receptor [5] and at human orexin 2 receptor [6] were 5610 nM and 78 nM, respectively. The Ki amounted to 105 nM on human orexin 2 receptor [1] and 2460 nM on human orexin 1 receptor [4].
The like results for `COc1cccc(-c2oc(C)nc2CN2CCNC3(CCN(c4nccc(OC)n4)CC3)C2=O)c1` [Example 1.17, 4-((5-(3-Methoxyphenyl)-2-methyloxazol-4-yl)methyl)-9-(4-methoxypyrimidin-2-yl)-1,4,9-triazaspiro[5.5] undecan-5-one] were, in that order, 2350 nM, 251 nM, 92 nM and 2090 nM.
Take `O=C1N(Cc2cccc3ccccc23)CCC12CCN(c1nc3ccccc3[nH]1)CC2` [Example 3.7, 8-(1H-Benzo[d]imidazol-2-yl)-2-(naphthalen-1-ylmethyl)-2,8-diazaspiro[4.5]decan-1-one]: the Kd at human orexin 1 receptor [2] is over 10000 nM; at human orexin 2 receptor [3], 1920 nM.
In the case of `Cc1ccc(C)c(CN2C(=O)CCC23CCN(c2nc(C)cc(C)n2)CC3)c1` [Example 8.6, 1-(2,5-Dimethylbenzyl)-8-(4,6-dimethylpyrimidin-2-yl)-1,8-diazaspiro[4.5]decan-2-one], the Kd on human orexin 1 receptor [5] was 4920 nM; at human orexin 2 receptor [6], 153 nM. Moreover, the Ki is 10 nM on human orexin 2 receptor [1] and 2780 nM on human orexin 1 receptor [4].
Take `O=C1CCC2(CCN(c3cnc4ccccc4n3)CC2)N1Cc1cccc2[nH]ccc12` [Example 8.1]: the Kd at human orexin 1 receptor [5] turned out to be 148 nM; at human orexin 2 receptor [6], 32 nM. For the same compound, the Ki on human orexin 2 receptor [1] came to 2.1 nM; at human orexin 1 receptor [4], 78 nM.
`COc1cccc(-c2sc(C)nc2CN2CCNC3(CCN(c4nc(C)cc(C)n4)CC3)C2=O)c1` [Example 1.24, 9-(4,6-Dimethyl-pyrimidin-2-yl)-4-((5-(3-methoxyphenyl)-2-methylthiazol-4-yl)methyl)-1,4,9-triazaspiro[5.5] undecan-5-one]: the figures for the Kd on human orexin 1 receptor [5] and at human orexin 2 receptor [6] were 924 nM and 35 nM, respectively. The Ki is 10 nM on human orexin 2 receptor [1] and 766 nM at human orexin 1 receptor [4].
As to `Cc1ccc(C)c(CN2C(=O)OCC23CCN(c2cnc4ccccc4n2)CC3)c1` [Example 8.20, 1-(2,5-Dimethylbenzyl)-8-(quinoxalin-2-yl)-3-oxa-1,8-diazaspiro[4.5]decan-2-one], the Kd at human orexin 1 receptor [5] amounted to 171 nM; at human orexin 2 receptor [6], 152 nM. In addition, the values for the Ki on human orexin 2 receptor [1] and at human orexin 1 receptor [4] were 14 nM and 141 nM, respectively.
The like results for `COc1cccc(-c2nn(C)nc2CN2CCC3(CCN(c4nc(C)cc(OC)n4)C3)C2=O)c1` (centres unmarked) [Example 5.45, 7-(4-methoxy-6-methylpyrimidin-2-yl)-2-((5-(3-methoxyphenyl)-2-methyl-2H-1,2,3-triazol-4-yl)methyl)-2,7-diazaspiro[4.4]nonan-1-one] were, in that order, 97 nM, 21 nM, 2.8 nM and 29 nM.

(Values after patent US20120165331A1, “Di/tri-aza-spiro-C9-C11alkanes” (priority 2010, published 2012).)
